The supplement of paper PMC10307832

Experiments:
Experiment in all cases: relative viability (nuclei count vs DMSO), 5 days (fraction); higher = more cells survive
[1] = tested on: 201T
Procedure, shortened: (§1)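 Nuclei were stained with Hoechst during a one-step fixation (final 0.05% Triton X-100, 1% formaldehyde, 1 ug/ml Hoechst) carried out 5 days after dosing, then counted on 4× images. The cells, lung cancer lines in 1536-well plates, had been dosed by pin tool the day after seeding with one drug alone or a fixed anchor-drug dose plus five library-drug doses (not always all listed) in √10 steps. Relative viability is the nuclei count in treated wells divided by that in vehicle wells, and each value is the median of duplicate plates.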

[2] = tested on: BEN
Procedure, shortened: as §1

[3] = tested on: CAL-12T
Procedure, shortened: as §1

[4] = tested on: HCC-44
Procedure, shortened: as §1

[5] = tested on: HCC-827
Procedure, shortened: as §1

[6] = tested on: HOP-62
Procedure, shortened: as §1

[7] = tested on: LCLC-103H
Procedure, shortened: as §1

[8] = tested on: LCLC-97TM1
Procedure, shortened: as §1

[9] = tested on: LXF-289
Procedure, shortened: as §1

[10] = tested on: NCI-H1355
Procedure, shortened: as §1

[11] = tested on: NCI-H1395
Procedure, shortened: as §1

[12] = tested on: NCI-H1437
Procedure, shortened: as §1

[13] = tested on: NCI-H1650
Procedure, shortened: as §1

[14] = tested on: NCI-H1793
Procedure, shortened: as §1

[15] = tested on: NCI-H2023
Procedure, shortened: as §1

[16] = tested on: NCI-H2087
Procedure, shortened: as §1

[17] = tested on: NCI-H2228
Procedure, shortened: as §1

[18] = tested on: NCI-H2405
Procedure, shortened: as §1

[19] = tested on: NCI-H3122
Procedure, shortened: as §1

[20] = tested on: NCI-H322M
Procedure, shortened: as §1

[21] = tested on: NCI-H647
Procedure, shortened: as §1

[22] = tested on: NCI-H727
Procedure, shortened: as §1

[23] = tested on: RERF-LC-KJ
Procedure, shortened: as §1

[24] = tested on: SK-LU-1
Procedure, shortened: as §1

COc1cc(N2CCC(C(N)=O)CC2)ccc1Nc1nc(N)c(Cl)c(Nc2ccccc2S(=O)(=O)C(C)C)n1 [HG-5-88-01] + O=C(c1cc(Cc2n[nH]c(=O)c3ccccc23)ccc1F)N1CCN(C(=O)C2CC2)CC1 [Olaparib] (partner 8 µM) gave a relative viability ([1]; first compound 0.04 µM) of 0.841, a relative viability ([1]; first compound 0.1265 µM) of 0.844 and a relative viability ([1]; first compound 1.265 µM) of 0.795. For the same compound, the relative viability ([1]; first compound 4 µM) was 0.831, the relative viability ([2]; first compound 0.04 µM) was 1.2 and the relative viability ([2]; first compound 0.1265 µM) was 1.16. For the same compound, the relative viability ([2]; first compound 0.4 µM) was 1.13, the relative viability ([2]; first compound 1.265 µM) was 0.683 and the relative viability ([2]; first compound 4 µM) was 0.993. For the same compound, the relative viability ([3]; first compound 0.04 µM) was 0.733, the relative viability ([3]; first compound 0.1265 µM) was 0.779 and the relative viability ([3]; first compound 0.4 µM) was 0.787. It also gave a relative viability ([3]; first compound 1.265 µM) of 0.667, a relative viability ([3]; first compound 4 µM) of 0.319 and a relative viability ([4]; first compound 0.04 µM) of 0.912. It also gave a relative viability ([4]; first compound 0.1265 µM) of 0.957, a relative viability ([4]; first compound 0.4 µM) of 0.934 and a relative viability ([4]; first compound 1.265 µM) of 0.921. For the same compound, the relative viability ([4]; first compound 4 µM) was 0.919, the relative viability ([5]; first compound 0.04 µM) was 0.695 and the relative viability ([5]; first compound 0.1265 µM) was 0.676. The relative viability ([5]; first compound 0.4 µM) was 0.363, the relative viability ([5]; first compound 1.265 µM) was 0.203 and the relative viability ([5]; first compound 4 µM) was 0.24. The relative viability ([6]; first compound 0.04 µM) was 0.426, the relative viability ([6]; first compound 0.1265 µM) was 0.511 and the relative viability ([6]; first compound 0.4 µM) was 0.396. It also gave a relative viability ([6]; first compound 1.265 µM) of 0.538, a relative viability ([6]; first compound 4 µM) of 0.283 and a relative viability ([7]; first compound 0.04 µM) of 0.714. It also gave a relative viability ([7]; first compound 0.1265 µM) of 0.748, a relative viability ([7]; first compound 0.4 µM) of 0.697 and a relative viability ([7]; first compound 1.265 µM) of 0.654. It also gave a relative viability ([7]; first compound 4 µM) of 0.719, a relative viability ([8]; first compound 0.04 µM) of 0.434 and a relative viability ([8]; first compound 0.1265 µM) of 0.396. For the same compound, the relative viability ([8]; first compound 0.4 µM) was 0.398, the relative viability ([8]; first compound 1.265 µM) was 0.26 and the relative viability ([8]; first compound 4 µM) was 0.193. For the same compound, the relative viability ([9]; first compound 0.04 µM) was 0.988, the relative viability ([9]; first compound 0.1265 µM) was 1.13 and the relative viability ([9]; first compound 0.4 µM) was 1.02. For the same compound, the relative viability ([9]; first compound 1.265 µM) was 1.07, the relative viability ([9]; first compound 4 µM) was 1.08 and the relative viability ([10]; first compound 0.04 µM) was 0.833. It also gave a relative viability ([10]; first compound 0.1265 µM) of 0.768, a relative viability ([10]; first compound 0.4 µM) of 0.74 and a relative viability ([10]; first compound 1.265 µM) of 0.706. It also gave a relative viability ([10]; first compound 4 µM) of 0.584, a relative viability ([11]; first compound 0.04 µM) of 0.499 and a relative viability ([11]; first compound 0.1265 µM) of 0.467. It also gave a relative viability ([11]; first compound 0.4 µM) of 0.48, a relative viability ([11]; first compound 1.265 µM) of 0.472 and a relative viability ([11]; first compound 4 µM) of 0.487. For the same compound, the relative viability ([12]; first compound 0.04 µM) was 0.645, the relative viability ([12]; first compound 0.1265 µM) was 0.609 and the relative viability ([12]; first compound 0.4 µM) was 0.607. The relative viability ([12]; first compound 1.265 µM) was 0.631, the relative viability ([12]; first compound 4 µM) was 0.557 and the relative viability ([13]; first compound 0.04 µM) was 0.729. For the same compound, the relative viability ([13]; first compound 0.1265 µM) was 0.753, the relative viability ([13]; first compound 0.4 µM) was 0.969 and the relative viability ([13]; first compound 1.265 µM) was 0.65. It also gave a relative viability ([13]; first compound 4 µM) of 0.837, a relative viability ([14]; first compound 0.04 µM) of 0.878 and a relative viability ([14]; first compound 0.1265 µM) of 0.84. For the same compound, the relative viability ([14]; first compound 0.4 µM) was 0.848, the relative viability ([14]; first compound 1.265 µM) was 0.651 and the relative viability ([14]; first compound 4 µM) was 0.847. For the same compound, the relative viability ([15]; first compound 0.04 µM) was 0.515, the relative viability ([15]; first compound 0.1265 µM) was 0.519 and the relative viability ([15]; first compound 0.4 µM) was 0.445. The relative viability ([15]; first compound 1.265 µM) was 0.441, the relative viability ([15]; first compound 4 µM) was 0.277 and the relative viability ([16]; first compound 0.04 µM) was 0.557. It also gave a relative viability ([16]; first compound 0.1265 µM) of 0.645, a relative viability ([16]; first compound 0.4 µM) of 0.585 and a relative viability ([16]; first compound 1.265 µM) of 0.536. The relative viability ([16]; first compound 4 µM) was 0.502, the relative viability ([17]; first compound 0.04 µM) was 0.538 and the relative viability ([17]; first compound 0.1265 µM) was 0.36. The relative viability ([17]; first compound 0.4 µM) was 0.424, the relative viability ([17]; first compound 1.265 µM) was 0.227 and the relative viability ([17]; first compound 4 µM) was 0.253. It also gave a relative viability ([18]; first compound 0.04 µM) of 0.885, a relative viability ([18]; first compound 0.1265 µM) of 0.904 and a relative viability ([18]; first compound 0.4 µM) of 0.807. For the same compound, the relative viability ([18]; first compound 1.265 µM) was 0.524, the relative viability ([18]; first compound 4 µM) was 0.75 and the relative viability ([19]; first compound 0.04 µM) was 0.594. The relative viability ([19]; first compound 0.1265 µM) was 0.403, the relative viability ([19]; first compound 0.4 µM) was 0.3 and the relative viability ([19]; first compound 1.265 µM) was 0.285. For the same compound, the relative viability ([19]; first compound 4 µM) was 0.15, the relative viability ([20]; first compound 0.04 µM) was 0.809 and the relative viability ([20]; first compound 0.1265 µM) was 0.699. For the same compound, the relative viability ([20]; first compound 0.4 µM) was 0.913, the relative viability ([20]; first compound 1.265 µM) was 0.485 and the relative viability ([20]; first compound 4 µM) was 0.686. For the same compound, the relative viability ([21]; first compound 0.04 µM) was 0.552, the relative viability ([21]; first compound 0.1265 µM) was 0.553 and the relative viability ([21]; first compound 1.265 µM) was 0.667. The relative viability ([21]; first compound 4 µM) was 0.738, the relative viability ([22]; first compound 0.04 µM) was 0.715 and the relative viability ([22]; first compound 0.1265 µM) was 0.705. For the same compound, the relative viability ([22]; first compound 0.4 µM) was 0.827, the relative viability ([22]; first compound 4 µM) was 0.572 and the relative viability ([23]; first compound 0.04 µM) was 0.937. The relative viability ([23]; first compound 0.1265 µM) was 0.957, the relative viability ([23]; first compound 0.4 µM) was 0.878 and the relative viability ([23]; first compound 1.265 µM) was 0.884. The relative viability ([23]; first compound 4 µM) was 0.519, the relative viability ([24]; first compound 0.04 µM) was 0.447 and the relative viability ([24]; first compound 0.1265 µM) was 0.442. It also gave a relative viability ([24]; first compound 0.4 µM) of 0.444, a relative viability ([24]; first compound 1.265 µM) of 0.417 and a relative viability ([24]; first compound 4 µM) of 0.295.
